US9902713B2, “Neuroprotective compounds and use thereof” (BOARD OF REGENTS OF THE UNIVERSITY OF TEXAS SYSTEM, priority 2013, dated 2018)

Legend:
[1] = Metabolic stability in hepatocytes; format: in vitro ADME; conditions: murine hepatocytes
Procedure: The pharmacokinetic and toxicity profiles of P7C3-S243 were evaluated using both in vivo and in vitro methods. Having observed near complete metabolic stability in the presence of murine hepatocytes (T1/2>240 min), we monitored plasma and brain levels of the compound following IV, oral and IP dosing.

Protein binding = format: in vitro ADME
[2] = test system: hippocampal CA1 Schaffer-collateral pathway; assay: Hippocampal electrophysiology (LTP, PPF) after blast-mediated TBI; format: in vivo, mice
Procedure: To test our hypothesis that performance in the Barnes maze was associated with hippocampal function, we investigated synaptic plasticity in the hippocampus. Specifically, we measured both long-term potentiation (LTP) and paired pulse facilitation (PPF) in brain slices derived from mice exposed to blast-injury as a function of treatment with different doses of P7C3-S243 for 9 days, initiated 24 hours after injury, in animals not subjected to behavioral testing. The stimulating electrode activated CA3 Schaeffer collateral axons, and the recording electrode was placed in the stratum radiatum of the CA1 region, where Schaffer collateral axons synapse with dendrites from CA1 pyramidal cells. […] Thus, dose-dependent protective efficacy of P7C3-S243 in behavioral tasks of learning and memory correlated with hippocampal function.
Electrophysiology. Single-housed, naïve 7- to 9-week-old male C57BL/6J mice received intraperitoneal injections of P7C3-S243 (0.3, 3, or 30 mg/kg/day) or vehicle 24 h following a single sham- or blast-Injury. On the tenth day after injury, coronal hippocampal slices (400 μm) were prepared, in accordance with the University of Iowa guidelines. Briefly, hippocampal slices were cut using a Vibratome 1000 Plus (Vibratome, St. Louis, Mo.) in ice-cold slicing buffer (in mM: 127 NaCl, 26 NaHCO3, 1.2 KH2PO4, 1.9 KCl, 1.1 CaCl2, 2 MgSO4, 10 D-Glucose) bubbled with 95% 02 and 5% CO2. Slices were then transferred to a holding chamber containing oxygenated artificial cerebrospinal fluid (ACSF; in mM: 127 NaCl, 26 NaHCO3, 1.2 KH2PO4, 1.9 KCl, 2.2 CaCl2, 1 MgSO4, 10 D-Glucose) for 30 min at 34 C and for another 30 min at 22° C. for recovery, and then transferred to a submersion recording chamber continually perfused with 32° C. oxygenated ACSF (rate: 2 ml/min). Slices were equilibrated for at least 15 min before each recording.
ACSF-filled glass electrodes (resistance <1 MΩ) were positioned in the stratum radiatum of area CA1 for extracellular recording. Synaptic responses were evoked by stimulating Schaffer collaterals with 0.2 ms pulses once every 15 s. […] Experiments with maximal fEPSPs of less than 0.5 mV, with large fiber volleys, or with substantial changes in the fiber volley during recording were rejected. LTP was induced by 12TBS (12 bursts, each of 4 pulses at 100 Hz).
Field EPSPs were recorded (AxoClamp 900A amplifier, Axon Instruments, Foster City, Calif.), filtered at 1 kHz, digitized at 10 kHz (Axon Digidata 1440), and stored for off-line analysis (Clampfit 10). Initial slopes of fEPSPs were expressed as percentages of baseline averages. In summary graphs, each point represents the average of 4 consecutive responses. The time-matched, normalized data were averaged across experiments.

blood-brain barrier = assay: Blood brain barrier permeability assay (Evans blue); format: in vivo; conditions: sham-injured mice, 3 days of daily treatment
Text: On the basis of the promising results seen with administration of P7C3-A20 or P7C3-S243 immediately after injury, we sought to determine whether P7C3-S243 could offer protective efficacy when treatment was initiated later. Because TBI can disrupt the blood-brain barrier (BBB), we first examined BBB integrity over time by means of the Evans blue assay. Evans blue is an azo dye with tight affinity for albumin, such that in serum virtually all Evans blue is albumin-bound. Normally, serum albumin cannot cross the BBB. However, when the BBB is compromised, albumin and its bound Evans blue can enter the CNS. The magnitude of Evans blue accumulation in the brain can then be spectrophotometrically determined in order to monitor disruption of the BBB (Uyama et al., 1988; Hawkins and Egleton, 2006). With this technique, we observed significant disruption of the BBB 6 hours after blast-injury, with integrity of the BBB recovering to normal 18 hours later (FIG. 21B).
Blood brain barrier (BBB) permeability assay. […] To quantify the extravasation of albumin-bound EBD in each brain, tissue was weighed and incubated for 30 minutes at room temperature in 50% Tricholoracetic acid (TCA) in PBS at a 3:1 μl/mg ratio. […] Fluorescence was measured using a SpectraMax M2^e (Molecular Devices) in 100 μl of samples plated on a 96-well plate at excitation wavelength of 620 nm and an emission wavelength of 680 nm.

U2OS cells = assay: Protection from doxorubicin-mediated toxicity (Dox:Tox); format: cell-based
[3] = test system: intracellular levels of NAD; assay: Intracellular NAD levels by mass spectrometry; format: cell-based; conditions: 3 uM, 12 hrs
Text: Cultured cells were exposed to varying levels of “A20” (X-axis) for 12 hrs. Intracellular levels of NAD (Y-axis) were monitored by mass spectrometry.

H2009 = assay: Toxicity towards human cancer cell line; format: cell-based; conditions: NCI-H2009
HCC44 = assay: Toxicity towards human cancer cell line; format: cell-based
2C9 = 2C9 (Homo sapiens, UniProt P11712); assay: Cytochrome P450 inhibition; format: in vitro ADME
Chain of 2C9 (P11712 whole entry): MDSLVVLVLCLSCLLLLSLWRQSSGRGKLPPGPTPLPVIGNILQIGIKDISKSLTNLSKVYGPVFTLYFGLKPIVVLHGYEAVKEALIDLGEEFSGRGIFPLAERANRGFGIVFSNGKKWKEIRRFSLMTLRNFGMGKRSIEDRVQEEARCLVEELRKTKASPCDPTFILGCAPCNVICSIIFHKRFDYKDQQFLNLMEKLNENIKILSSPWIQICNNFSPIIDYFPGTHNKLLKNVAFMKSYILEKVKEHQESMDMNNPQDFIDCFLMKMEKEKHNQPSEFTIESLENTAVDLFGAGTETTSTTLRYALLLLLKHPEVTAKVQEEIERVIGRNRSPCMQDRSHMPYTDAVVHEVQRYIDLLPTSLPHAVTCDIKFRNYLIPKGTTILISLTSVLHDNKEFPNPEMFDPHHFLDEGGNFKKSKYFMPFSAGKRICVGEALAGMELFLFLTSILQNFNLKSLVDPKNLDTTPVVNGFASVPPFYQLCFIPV

[4] = test system: 47 neuronal receptors and channels; assay: NIH Psychoactive Drug Screening Program panel; format: binding
[5] = biological target: peripheral benzodiazepine receptor (translocator protein, TSPO) (Rattus norvegicus, UniProt P16257); assay: Ligand displacement (Psychoactive Drug Screening Program); format: binding
blast-injured mice = assay: Barnes maze, treatment begun 10 months after blast injury; format: in vivo
Text: After 8 weeks of treatment, mice were completely withdrawn from treatment with vehicle or compound.

CYP1A2 = CYP1A2 (Homo sapiens, UniProt P05177); assay: Cytochrome P450 inhibition
Chain of CYP1A2 (P05177 whole entry): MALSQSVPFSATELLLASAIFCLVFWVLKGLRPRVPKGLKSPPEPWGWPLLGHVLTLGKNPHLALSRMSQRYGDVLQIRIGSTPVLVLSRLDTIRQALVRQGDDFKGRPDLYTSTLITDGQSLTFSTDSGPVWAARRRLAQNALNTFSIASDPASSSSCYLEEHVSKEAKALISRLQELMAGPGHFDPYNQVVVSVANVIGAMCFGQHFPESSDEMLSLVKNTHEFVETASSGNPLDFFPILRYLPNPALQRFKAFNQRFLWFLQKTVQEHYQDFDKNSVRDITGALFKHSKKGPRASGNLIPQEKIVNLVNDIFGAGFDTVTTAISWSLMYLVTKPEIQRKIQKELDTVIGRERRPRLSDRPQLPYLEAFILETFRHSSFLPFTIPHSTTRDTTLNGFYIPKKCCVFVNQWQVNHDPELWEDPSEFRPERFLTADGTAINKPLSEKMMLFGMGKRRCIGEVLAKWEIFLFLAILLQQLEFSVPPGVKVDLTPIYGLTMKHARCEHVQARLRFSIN

## COc1cccc(NCC(F)Cn2c3ccc(Br)cc3c3cc(Br)ccc32)n1 (racemic) [P7C3-S243, N-(3-(3,6-dibromo-9H-carbazol-9-yl)-2-fluoropropyl)-6-methoxypyridin-2-amine]
[1]
  T1/2: > 4 h
Protein binding
  protein binding: high
[2]; 0.3 mg/kg/d from 24 hours after injury
  blast-induced LTP deficit: not rescued
[2]; 0.3 mg/kg/day
  blast-induced deficits in LTP and PPF: had no effect
[2]; 3 and 30 mg/kg/d
  blast-induced PPF deficit, 50 ms inter-pulse interval: rescued
[2]; 3 and 30 mg/kg/d from 24 hours after injury
  blast-induced LTP deficit: rescued
blood-brain barrier
  BBB integrity: did not compromise BBB integrity

## COc1cccc(NCC(F)Cn2c3ccc(Br)cc3c3cc(Br)ccc32)c1 (stereo not drawn) [P7C3-A20, N-(3-(3,6-dibromo-9H-carbazol-9-yl)-2-fluoropropyl)-3-methoxyaniline]
U2OS cells
  level of compound required for maximal Dox:Tox protection: 3 µM
U2OS cells; U2OS cells, FIG. 11
  protection from doxorubicin-mediated cell toxicity: dose-responsive activity
[3]
  maximal enhancement of NAD: 20-30%

## COc1cccc(NCC(F)Cn2c3ccc(Br)cc3c3cc(Br)ccc32)n1 (single isomer, unassigned; (-)) [(−)-P7C3-S243, (−)-N-(3-(3,6-dibromo-9H-carbazol-9-yl)-2-fluoropropyl)-6-methoxypyridin-2-amine]
H2009
  IC50: > 10 µM
HCC44
  IC50: > 10 µM
2C9
  sensitivity of cytochrome P450: insensitive
[4]
  binding partners among 47 neuronal receptors and channels: no compelling binding partners were identified
[5]
  IC50: 0.35 µM
blast-injured mice; 3 mg/kg/day begun 10 months after injury, after 4 and 8 weeks
  time spent in the escape area: sustained improvement in cognitive function
blast-injured mice; after 8 weeks of treatment, then withdrawn
  cognition relative to vehicle group after withdrawal: sustained improvement in cognition
CYP1A2
  IC50: 20 µM
